Reference: US20220315631A1, “STAPLED BETA-CATENIN LIGANDS” (Ohio State Innovation Foundation, priority 2019, published 2022)
Starred links: 1 amine or outer side, 2 acyl side, 3 side chain; linkers in the order of their positions; H or OH if unused. Positions of bridges follow the written chain, without caps; N, C: chain ends. Residues, ends and D or L forms follow the SMILES beside them. *: point of attachment. 5FAM = O=C1OC2(c3ccc(O)cc3Oc3cc(O)ccc32)c2ccc(C(=O)*)cc21; mXylylene = c1cc(C[*:1])cc(C[*:2])c1

Biological target: T1, β-catenin (Homo sapiens, UniProt P35222)
T1 construct: cells harboring plasmid pGEX-β-catenin(133-665)52 were grown in LB medium; made in house; host or cells: E. coli BL21 (DE3)
T1 sequence (P35222 133-665): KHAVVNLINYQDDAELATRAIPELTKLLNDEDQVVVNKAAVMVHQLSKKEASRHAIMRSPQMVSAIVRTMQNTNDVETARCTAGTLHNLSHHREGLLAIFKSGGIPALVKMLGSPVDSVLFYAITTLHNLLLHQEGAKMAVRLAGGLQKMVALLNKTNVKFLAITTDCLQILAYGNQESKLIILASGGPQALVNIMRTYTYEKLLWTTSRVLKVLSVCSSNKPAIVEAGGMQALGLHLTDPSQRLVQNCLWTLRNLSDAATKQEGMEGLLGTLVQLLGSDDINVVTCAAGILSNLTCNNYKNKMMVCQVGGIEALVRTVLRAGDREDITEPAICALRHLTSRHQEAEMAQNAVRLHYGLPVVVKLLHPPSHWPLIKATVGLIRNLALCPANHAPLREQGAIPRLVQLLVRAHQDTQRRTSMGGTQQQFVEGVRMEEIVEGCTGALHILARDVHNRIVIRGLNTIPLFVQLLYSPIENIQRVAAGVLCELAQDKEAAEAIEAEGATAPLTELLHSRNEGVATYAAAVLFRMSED
Test: FP direct binding of FAM-labeled peptide 1 to GST-β-catenin
Details: 10 nM peptide 1 with serial dilutions of GST-β-catenin, read-out: KD or IC50
Protocol: Protein-Ligand Binding Assays. Peptide 1: Binding affinity was determined using FP. Peptide 1 (10 nM) was added to serial dilutions of GST-β-catenin in 20 mM Tris, 300 mM NaCl, pH 8.8, 0.01% Triton-X100 as reported previously. 34 After 1 h, aliquots were transferred from the reaction mixtures into black-on-black 384-well non-binding plates (Greiner) and FP was measured using a Tecan Infinite M1000 Pro plate reader. The KD value was calculated using KaleidaGraph v. 3.6 using the equation below.
Protein Purification. For β-catenin, E. coli BL21 (DE3) cells harboring plasmid pGEX-β-catenin(133-665)52 were grown in LB medium supplemented with 50 mg/L ampicillin at 37° C. to an OD600 of 0.6 before induction with 0.2 mM IPTG overnight at 30° C. Cells were harvested by centrifugation and lysed in lysis buffer (20 mM Tris, pH 8.0, 150 mM NaCl, 2 mM DTT, 1% Triton-X100, 200 mM EDTA, 10 mg/mL PMSF, and 0.2 mg/mL lysozyme) on ice for 20 min, followed by sonication (8 s off, 2 s on, 1 min total, performed twice at 70% amplitude). The homogenate was centrifuged (13,000 g for 30 min at 4° C. and the clear supernatant was loaded onto an equilibrated glutathione-agarose column. After exhaustive washing with wash buffer (20 mM Tris, pH 7.4, 150 mM NaCl, 2 mM DTT), the bound GST-β-catenin was eluted with wash buffer supplemented with 10 mM glutathione, concentrated, and stored at −80° C. in 30% glycerol.

Kd: 18 nM
Structure (SMILES): CC[C@H](C)[C@@H]1NC(=O)[C@@H](NC(=O)[C@H](CCC(=O)O)NC(=O)[C@@H]2CCCN2C(=O)[C@H](Cc2ccc(O)cc2)NC(=O)CNC(=O)CNC(=O)c2ccc3c(c2)C(=O)OC32c3ccc(O)cc3Oc3cc(O)ccc32)CSCc2cccc(c2)CSC[C@@H](C(=O)N[C@@H](Cc2c[nH]cn2)C(=O)N[C@@H](CC(C)C)C(=O)N[C@@H](CCC(N)=O)C(=O)N[C@@H](CCCNC(=N)N)C(=O)N[C@H](C(=O)N[C@H](C(=O)N[C@@H](CC(C)C)C(N)=O)[C@@H](C)CC)C(C)C)NC(=O)[C@H](CC(=O)O)NC(=O)[C@H](CC(C)C)NC1=O [peptide 1] (5FAM-GGYPECILDCHLQRVIL-NH2; linker 6-10 via mXylylene)
